Where two headings read alike, the source gives them in different places.
Molecular target: T1, GSPT1 protein (Homo sapiens, UniProt P15170+Q96SW2)
T1 construct: endogenous in cells; host or cells: Jeko-1
Experiment: Western blot detection of degradation activity of GSPT1 protein in Jeko-1 cells
Assay type: cell-based
Conditions: for inhibition at 0.1 µM / inhibition at 10 µM / inhibition at 0.01 µM / inhibition at 1 µM: JeKo-1, 24 h, read-out: GSPT1 degradation rate (%)
Method: Test Example 1: Western Blot Detection of Degradation Activity of GSPT1 Protein by the Compounds
Cell line: Jeko-1 cell line was cultured with an RPMI1640 media containing 20% fetal bovine serum in an incubator at 37° C., 5% CO2, and saturated humidity.
DMSO control group and test compound (concentration shown in the table below) were set up, after processing for 24 hours, the cells were collected, pre-cooled cell lysate was added and left on ice for 10 minutes. The total protein of the cells was extracted, and the protein concentration was measured and quantified using the BCA method. Routine gel preparation, sample loading, electrophoresis were conducted, then the membrane was transferred, and sealed, wherein the primary antibody was diluted with a blocking solution at 1:500-5000. The membrane was immersed in the diluted primary antibody and incubated overnight at 4° C. After rinsing, the secondary antibody was diluted with a sealing solution at 1:10000-20000, the membrane was immersed in the diluted secondary antibody, and incubated at room temperature for 45 minutes. After rinsing, the results were tested on ODYSSEY (Li-COR). GAPDH was used as an internal reference control.
Image J software was used to perform gray level analysis on each band and the degradation rate of GSPT1 protein by the compounds was calculated.

T1 sequence (P15170 whole entry): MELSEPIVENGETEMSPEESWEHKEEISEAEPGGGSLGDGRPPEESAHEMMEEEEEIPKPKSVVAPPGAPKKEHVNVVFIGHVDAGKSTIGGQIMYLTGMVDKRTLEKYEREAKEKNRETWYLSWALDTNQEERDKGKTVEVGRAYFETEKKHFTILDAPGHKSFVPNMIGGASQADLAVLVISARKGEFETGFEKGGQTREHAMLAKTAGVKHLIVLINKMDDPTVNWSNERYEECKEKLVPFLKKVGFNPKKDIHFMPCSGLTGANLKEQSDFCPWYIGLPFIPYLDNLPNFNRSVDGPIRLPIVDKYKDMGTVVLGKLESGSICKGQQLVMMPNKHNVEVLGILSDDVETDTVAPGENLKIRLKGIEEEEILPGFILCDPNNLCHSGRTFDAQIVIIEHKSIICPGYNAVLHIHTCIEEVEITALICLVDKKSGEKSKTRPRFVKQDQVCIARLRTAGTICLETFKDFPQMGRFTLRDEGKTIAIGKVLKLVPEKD
T1 sequence (Q96SW2 whole entry): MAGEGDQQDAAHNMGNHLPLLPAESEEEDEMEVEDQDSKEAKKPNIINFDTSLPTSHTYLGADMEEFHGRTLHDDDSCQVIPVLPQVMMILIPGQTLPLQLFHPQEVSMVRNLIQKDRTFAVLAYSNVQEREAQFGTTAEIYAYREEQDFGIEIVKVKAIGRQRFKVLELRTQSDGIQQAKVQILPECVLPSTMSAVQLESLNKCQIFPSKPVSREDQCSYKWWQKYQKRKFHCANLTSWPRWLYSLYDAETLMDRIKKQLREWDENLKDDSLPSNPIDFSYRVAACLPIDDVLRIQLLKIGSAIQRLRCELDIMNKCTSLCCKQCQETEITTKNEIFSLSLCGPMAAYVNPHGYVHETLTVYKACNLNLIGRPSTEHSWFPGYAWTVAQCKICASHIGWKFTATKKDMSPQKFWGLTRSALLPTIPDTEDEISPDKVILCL
T1 sequence (Q16531 whole entry partner): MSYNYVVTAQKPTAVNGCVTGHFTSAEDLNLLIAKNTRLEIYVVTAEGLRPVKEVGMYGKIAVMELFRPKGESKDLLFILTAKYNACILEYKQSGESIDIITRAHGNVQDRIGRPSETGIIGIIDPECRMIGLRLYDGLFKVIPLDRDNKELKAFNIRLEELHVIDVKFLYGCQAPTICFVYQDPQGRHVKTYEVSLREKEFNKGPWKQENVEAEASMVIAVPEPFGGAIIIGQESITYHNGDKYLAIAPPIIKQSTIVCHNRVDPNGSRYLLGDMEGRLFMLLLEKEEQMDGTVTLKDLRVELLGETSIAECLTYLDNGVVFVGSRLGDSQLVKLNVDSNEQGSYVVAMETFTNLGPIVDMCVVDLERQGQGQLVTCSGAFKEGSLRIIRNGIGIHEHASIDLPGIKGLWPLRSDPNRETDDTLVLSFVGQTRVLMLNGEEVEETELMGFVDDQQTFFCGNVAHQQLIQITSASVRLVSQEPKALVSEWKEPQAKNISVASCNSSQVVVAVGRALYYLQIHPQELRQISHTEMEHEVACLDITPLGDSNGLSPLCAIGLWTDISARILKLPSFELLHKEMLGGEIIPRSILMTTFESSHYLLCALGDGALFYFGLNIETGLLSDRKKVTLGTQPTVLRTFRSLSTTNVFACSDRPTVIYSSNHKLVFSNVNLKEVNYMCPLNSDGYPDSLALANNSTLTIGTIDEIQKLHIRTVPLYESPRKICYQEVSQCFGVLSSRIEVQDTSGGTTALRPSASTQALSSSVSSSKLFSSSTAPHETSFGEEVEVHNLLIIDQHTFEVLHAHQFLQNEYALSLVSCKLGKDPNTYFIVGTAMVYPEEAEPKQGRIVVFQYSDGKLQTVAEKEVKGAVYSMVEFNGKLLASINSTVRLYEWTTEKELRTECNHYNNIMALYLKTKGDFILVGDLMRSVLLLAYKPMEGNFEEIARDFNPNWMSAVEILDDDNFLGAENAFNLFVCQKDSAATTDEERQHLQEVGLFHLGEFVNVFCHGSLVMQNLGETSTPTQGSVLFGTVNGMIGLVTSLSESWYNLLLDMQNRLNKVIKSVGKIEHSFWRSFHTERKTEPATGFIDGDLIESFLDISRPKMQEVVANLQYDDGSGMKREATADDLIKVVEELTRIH

| Compound | inhibition at 0.1 µM (100 nM, Jeko-1 cells, 24 hours) | inhibition at 10 µM (10 μM, Jeko-1 cells, 24 hours) | other results |
| --- | --- | --- | --- |
| N[C@H](C(=O)NCc1ccc2c(c1)CN(C1CCC(=O)NC1=O)C2=O)c1ccccc1 (some centres unmarked) [Compound 4-87-2] | 21% | 15% |  |
| CC(C)(C)OC(=O)N[C@@H](C(=O)NCc1ccc2c(c1)CN(C1CCC(=O)NC1=O)C2=O)c1ccccc1 (stereo partly drawn) [Compound 4-108, Tert butyl ((1R)-2-((2-(2-(2,6-Dioxopiperidin-3-yl)-1-oxoisoindolin-5-yl)methyl)amino)-2-oxo-1-phenylethyl) carbamate] |  |  | inhibition at 0.01 µM (10 nM, Jeko-1 cells, 24 hours): 10%; inhibition at 1 µM (1 μM, Jeko-1 cells, 24 hours): 95% |
| CC(C)(C)OC(=O)NC(CC(=O)NCc1ccc2c(c1)CN(C1CCC(=O)NC1=O)C2=O)c1ccccc1 (centres unmarked) [Compound 4-130, Tert butyl (3-((2-(2,6-dioxypiperidin-3-yl)-1-oxoisoindolin-5-yl)methyl)amino)-3-oxo-1-phenylpropyl) carbamate] | 51% | 94% |  |
| CC(C)(C)OC(=O)NCC(C(=O)NCc1ccc2c(c1)CN(C1CCC(=O)NC1=O)C2=O)c1ccccc1 (centres unmarked) [Compound 4-131] | 96% | 97% |  |
| CC(C)(C)OC(=O)N[C@H](Cc1ccccc1)C(=O)NCc1ccc2c(c1)CN(C1CCC(=O)NC1=O)C2=O (stereo partly drawn) [Compound 4-132, Tert butyl ((2R)-1-((2-(2,6-dioxypiperidin-3-yl)-1-oxoisoindoline-5-yl)methyl)amino)-1-oxo-3-phenylpro p-2-yl) carbamate] | 93% | 96% |  |
| CCOC(=O)N[C@H](C(=O)NCc1ccc2c(c1)CN(C1CCC(=O)NC1=O)C2=O)c1ccccc1 (stereo partly drawn) [Compound 4-138, Ethyl ((1S)-2-((2-(2,6-dioxypiperidin-3-yl)-1-oxoisoindoline-5-yl)methyl)amino)-2-oxo-1-phenylethyl) carbamate] | 31% | 88% |  |
| O=C1CCC(N2Cc3cc(CNC(=O)[C@@H](NC(=O)OCc4ccccc4)c4ccccc4)ccc3C2=O)C(=O)N1 (stereo partly drawn) [Compound 4-139, Benzyl ((1S)-2-((2-(2,6-dioxypiperidin-3-yl)-1-oxoisoindoline-5-yl)methyl)amino)-2-oxo-1-phenylethyl) carbamate] | 98% | 97% |  |
| CC(C)OC(=O)N[C@H](C(=O)NCc1ccc2c(c1)CN(C1CCC(=O)NC1=O)C2=O)c1ccccc1 (stereo partly drawn) [Compound 4-160, Isopropyl ((1S)-2-((2-(2,6-dioxypiperidin-3-yl)-1-oxoisoindoline-5-yl)methyl)amino)-2-oxo-1-phenylethy 1) carbamate] |  |  | inhibition at 0.1 µM: 96%; inhibition at 10 µM: 89% |
| CC(C)(C)OC(=O)NC[C@@H](Cc1ccccc1)C(=O)NCc1ccc2c(c1)CN(C1CCC(=O)NC1=O)C2=O (stereo partly drawn) [Compound 4-171, Tert butyl ((2R)-2-benzyl-3-((2-(2,6-dioxypiperidin-3-yl)-1-oxoisoindolin-5-yl)methyl)amino)-3-oxopropyl) carbamate] | 29% | 88% |  |
| CC(C)[C@@H]1CC[C@@H](C)C[C@H]1OC(=O)N[C@H](C(=O)NCc1ccc2c(c1)CN(C1CCC(=O)NC1=O)C2=O)c1ccccc1 (some centres unmarked) [Compound 4-175b] |  |  | inhibition at 0.01 µM: 98%; inhibition at 1 µM: 99% |
| Cc1ccc(S(=O)(=O)N[C@H](C(=O)NCc2ccc3c(c2)CN(C2CCC(=O)NC2=O)C3=O)c2ccccc2)cc1 (some centres unmarked) [Compound 4-176] | 35% | 53% |  |
| O=C1CCC(N2Cc3cc(CNC(=O)[C@@H](NC(=O)NCc4ccccc4)c4ccccc4)ccc3C2=O)C(=O)N1 (stereo partly drawn) [Compound 4-184, (2S)-2-(3-benzylurea)-N-((2-(2,6-dioxopyridin-3-yl)-1-oxoisoidoline-5-yl)methyl)-2-phenylacetamide] | 21% | 85% |  |
| CC(C)(C)NC(=O)CNC(Cc1ccccc1)C(=O)NCc1ccc2c(c1)CN(C1CCC(=O)NC1=O)C2=O (centres unmarked) [Compound 4-186] | 26% | 56% |  |
| CC(C)(C)NC(=O)NCC(Cc1ccccc1)C(=O)NCc1ccc2c(c1)CN(C1CCC(=O)NC1=O)C2=O (centres unmarked) [Compound 4-188, 2-Benzyl-3-(3-(tertbutyl)urea)-N-((2-(2,6-dioxypiperidin-3-yl)-1-oxoisoindoline-5-yl)methyl) propionamide] | 32% | 63% |  |
| COC(C(=O)N[C@H](C(=O)NCc1ccc2c(c1)CN(C1CCC(=O)NC1=O)C2=O)c1ccccc1)c1ccccc1 (some centres unmarked) [Compound 4-199] | 14% | 81% |  |
| O=C1CCC(N2Cc3cc(CNC(=O)C(CNC(=O)OC4CCCC4)c4ccccc4)ccc3C2=O)C(=O)N1 (centres unmarked) [Compound 5-3, Cyclopentyl (3-((2-(2,6-dioxypiperidin-3-yl)-1-oxoisoindolin-5-yl)methyl)amino)-3-oxo-2-phenylpropyl) carbamate] |  |  | inhibition at 0.1 µM: 76%; inhibition at 10 µM: 49% |

| Compound | inhibition at 0.1 µM (100 nM, Jeko-1 cells, 24 hours) | inhibition at 10 µM (10 μM, Jeko-1 cells, 24 hours) | other results |
| --- | --- | --- | --- |
| O=C1CCC(N2Cc3cc(CNC(=O)C(CNC(=O)C4CCCC4)c4ccccc4)ccc3C2=O)C(=O)N1 (centres unmarked) [Compound 5-9] |  |  | GSPT1 degradation rate (%) (100 nM, Jeko-1 cells, 24 hours): 45%; GSPT1 degradation rate (%) (10 μM, Jeko-1 cells, 24 hours): 93% |
| O=C1CCC(N2Cc3cc(CNC(=O)C(CNC(=O)Nc4ccccc4)c4ccccc4)ccc3C2=O)C(=O)N1 (centres unmarked) [Compound 5-11, N-((2-(2,6-dioxypiperidin-3-yl)-1-oxoisoindolin-5-yl)methyl)-2-phenyl-3-(3-phenylurea) propionamide] |  |  | inhibition at 0.1 µM: 17%; inhibition at 10 µM: 77% |
| CC(C)(C)NC(=O)NCC(C(=O)NCc1ccc2c(c1)CN(C1CCC(=O)NC1=O)C2=O)c1ccccc1 (centres unmarked) [Compound 5-12] | 18% | 71% |  |
| CC(C)(C)C(=O)NCC(C(=O)NCc1ccc2c(c1)CN(C1CCC(=O)NC1=O)C2=O)c1ccccc1 (centres unmarked) [Compound 5-23, N-((2-(2,6-dioxypiperidin-3-yl)-1-oxoisoidoline-5-yl)methyl)-2-phenyl-3-terpentylaminopropionamide] | 28% | 93% |  |
| O=C1CCC(N2Cc3cc(CNC(=O)C(CNC(=O)C4CCCCC4)c4ccccc4)ccc3C2=O)C(=O)N1 (centres unmarked) [Compound 5-25] | 58% | 96% |  |
| O=C1CCC(N2Cc3cc(CNC(=O)C(CNC(=O)c4ccccc4)c4ccccc4)ccc3C2=O)C(=O)N1 (centres unmarked) [Compound 5-26] |  |  | inhibition at 0.1 µM: 33%; inhibition at 10 µM: 98% |
| O=C1CCC(N2Cc3cc(CNC(=O)C(NC(=O)CC4CCCC4)c4ccccc4)ccc3C2=O)C(=O)N1 (centres unmarked) [Compound 5-29, 2-(2-cyclopentylacetamido)-N-((2-(2,6-dioxopyridin-3-yl)-1-oxoisoidoline-5-yl)methyl)-2-phenylacetamide] | 70% | 97% |  |
| O=C1CCC(N2Cc3cc(CNC(=O)C(NC(=O)C4CCCC4)c4ccccc4)ccc3C2=O)C(=O)N1 (centres unmarked) [Compound 5-30] | 59% | 93% |  |
| CC(C)OC(=O)N[C@@H](Cc1ccccc1)C(=O)NCc1ccc2c(c1)CN(C1CCC(=O)NC1=O)C2=O (stereo partly drawn) [Compound 5-39, Isopropyl ((2S)-1-(2-(2,6-dioxypiperidin-3-yl)-1-oxoisoindoline-5-yl)methyl)amino)-1-oxo-3-phenylprop-2-yl) carbamate] |  |  | inhibition at 0.1 µM: 65.2%; inhibition at 10 µM: 85.8% |
| CC(C)(C)OC(=O)N[C@@H](CC(N)=O)C(=O)NCc1ccc2c(c1)CN(C1CCC(=O)NC1=O)C2=O (stereo partly drawn) [Compound 5-43, Tert butyl ((2S)-4-amino-1-((2-(2,6-dioxypiperidin-3-yl)-1-oxoisoindolin-5-yl)methyl)amino)-1,4-dioxobutane-2-yl) carbamate] | 11.6% | 87.9% |  |
| O=C1CCC(N2Cc3cc(CNC(=O)[C@@H](CNC(=O)C4CCCC4)c4ccc(Cl)cc4)ccc3C2=O)C(=O)N1 (some centres unmarked) [Compound 5-52] | 38.1% | 92.7% |  |
| O=C1CCC(N2Cc3cc(CNC(=O)C(CNC(=O)C4CCCC4)c4ccccc4)ccc3C2=O)C(=O)N1 [Compound 5-53, N-((2R)-3-((2-(2,6-dioxypiperidin-3-yl)-1-oxoisoindolin-5-yl)methyl)amino)-3-oxo-2-phen ylpropyl) cyclopentyl Formamide] | 26.1% | 91.2% |  |
| O=C1CCC(N2Cc3cc(CNC(=O)[C@H](CC4CCCCC4)NC(=O)C4CCCC4)ccc3C2=O)C(=O)N1 (some centres unmarked) [Compound 5-54] | 41.3% | 87.1% |  |
| CC(C)(C)OC(=O)NCC(C(=O)NCc1ccc2c(c1)CN(C1CCC(=O)NC1=O)C2=O)C1CCCCC1 (centres unmarked) [Compound 5-55, Tert butyl (2-cyclohexyl-3-((2-(2,6-dioxypiperidin-3-yl)-1-oxoisoindoline-5-yl)methyl)amino)-3-oxopropyl) carbamate] | 85.1% | 93.9% |  |
| O=C1CCC(N2Cc3cc(CNC(=O)C(CNC(=O)C4CCCC4)C4CCCCC4)ccc3C2=O)C(=O)N1 (centres unmarked) [Compound 5-59] | 36% | 93.7% |  |
